Data taken from US11209421B2, “Cytidine deaminase expression level in cancer as a new therapeutic target” (CENTRE NATIONAL DE LA RECHERCHE SCIENTIFIQUE, priority 2016, dated 2021).
Read-outs that look alike come from different tables or passages of the source.

Key:
[1] = tested on: breast cancer cell lines (MDA-MB-231, HCC-1954, MCF-7, BT-20) and IGROV-1
Method: D, Cell viability, as assessed in MTT assays on breast cancer cell lines (MDA-MB-231, HCC-1954, MCF-7, BT-20) and an ovarian cell cancer line (IGROV-1) after 96 h of treatment with 5-Aza-dC. Error bars represent the mean±SD of 3 independent experiments for IGROV-1 and 2 experiments for the other cell lines. […] The dashed lines indicate the 5-Aza-dC concentrations used in this study.
Cell viability was carried out with 3-(4,5-dimethyl-2-thiazolyl)-2,5 diphenyl-2H-tetrazolium bromide (MTT-Life Technologies) in 96-well microplates.

CDA mRNA = test: RT-qPCR analysis of the induction of CDA expression; type: cell-based, human; details: 96 hours, 2.5 μM 5-Aza-dC
Method: For evaluation of the induction of CDA expression, RNA was isolated from cell lines continuously treated with 1 or 2.5 μM of 5-Aza-2′-deoxycytidine (5-Aza-dC—Sigma Aldrich) for 96 hours.
The procedure for real-time PCR (RT-qPCR) was as described by Gemble et al. (cf. Reference 19). In brief, total RNA was extracted from PDX tissues and from cell lines with the RNeasy Mini Kit (Qiagen). Reverse transcription was performed on 1 μg of RNA with the GoScript enzyme (Promega). The cDNA obtained was used at a dilution of 1/10 for real-time PCR with the SYBER Green supermix reagent (Biorad) in a Biorad CFX96 machine. Each sample was run in triplicate. Relative expression was determined by the 2^−ΔΔCt method. GAPDH and TBP were used as internal controls.

CDA protein = test: Western blot analysis of the induction of CDA expression; type: cell-based, human; details: HCC-1954 and IGROV-1, 1 μM 5-Aza-dC for 96 h
Method: For western blotting, cells were harvested by centrifugation and lysed in 8 M urea, 50 mM Tris-HCl, pH 7.5 and 150 mM β-mercaptoethanol buffer supplemented with protease inhibitor (ThermoScientific). They were then sonicated and heated. Protein concentration was estimated with the BCA kit (Pierce) and the equivalent of 20 μg or protein per cell lysate was run on a 4-12% Bis-Tris pre-cast gel (Life Technologies). The proteins were then transferred to PVDF membranes, which were probed with the appropriate antibody. Protein bands were visualized with a CCD camera (BioRad).

MDA-MB-468 xenograft = details: cited from earlier work; for median tumor growth inhibition: compared to control
MDA-MB-231 xenograft = details: cited from earlier work
CDA-depleted HeLa cells = test: Images of CDA-depleted HeLa cells 24 h after Dasatinib treatment; type: cell-based, human; details: 24 h after 0.5 or 1 μM
HCC-1954 cells = test: MTT cell viability, HCC-1954 (gemcitabine after 5-Aza-dC pretreatment); type: cell-based, human; details: pretreatment 96 h with 1 μM 5-Aza-dC versus untreated, then gemcitabine 72 hours
Method: (§1) Cell viability was carried out with 3-(4,5-dimethyl-2-thiazolyl)-2,5 diphenyl-2H-tetrazolium bromide (MTT-Life Technologies) in 96-well microplates. The functionality of CDA was assessed by plating HCC-1954 and IGROV-1 cells at densities of 2000 and 3000 cells/well, respectively, on the day before pretreatment and at a density of 800 cells/well for control conditions. Cells were then left untreated or subjected to pretreatment with 1 μM 5-Aza-dC for 96 h. The cells were washed twice with PBS buffer, placed in fresh medium and incubated for 72 hours in the presence of various concentrations of gemcitabine, from 0.001 to 1 μM (Sigma Aldrich). The data were normalized to corresponding controls, for each condition.

IGROV-1 cells = test: MTT cell viability, IGROV-1; type: cell-based, human; details: pretreatment 96 h with 1 μM 5-Aza-dC versus untreated, then gemcitabine 72 hours
Method: as §1

[2] = MDA-MB-231 xenograft mice, 70 mg/kg

## Nc1ncn([C@H]2C[C@H](O)[C@@H](CO)O2)c(=O)n1 [5-Aza-dC, 5-Aza-2′-deoxycytidine]
[1]
  toxicity (cell viability, MTT): without major toxicity
CDA mRNA; 7 CDA-deficient cell lines
  induction of CDA mRNA levels: up to 1000 fold
CDA mRNA; MDA-MB-231, HOP-92, HCC-1143 and HCC-1937 control cell lines with constitutively high CDA
  induction of CDA transcript levels: two-fold
CDA protein
  induction of CDA protein production: strongly induced the production of a functional CDA protein

## Cc1c(F)c(N)c2c(=O)cc(-c3ccc(NC(=O)[C@@H](N)CCCCN)c(F)c3)oc2c1F [AFP464]
MDA-MB-468 xenograft; MDA-MB-468 xenograft mice, 35 and 50 mg/kg
  tolerance: well tolerated
MDA-MB-468 xenograft; MDA-MB-468 xenograft, 35 or 50 mg/kg i.v., compared to vehicle control
  tumor growth: statistically significantly delayed tumor growth
MDA-MB-468 xenograft; MDA-MB-468 xenograft, after one cycle of treatment
  median tumor growth inhibition: 57%
MDA-MB-468 xenograft; MDA-MB-468 xenograft, after two cycles of treatment
  median tumor growth inhibition: 54%
MDA-MB-231 xenograft; MDA-MB-231 xenograft mice, 35 mg/kg
  tolerance: well tolerated
MDA-MB-231 xenograft; [2]
  body weight loss: up to 15%
  death of mice during the course of treatment: 1 of 7
MDA-MB-231 xenograft; MDA-MB-231 xenograft, AFP464 alone, 35 or 70 mg/kg
  antitumor activity (inhibition): 0%

## Cc1nc(Nc2ncc(C(=O)Nc3c(C)cccc3Cl)s2)cc(N2CCN(CCO)CC2)n1 [NSC 759877, Dasatinib]
CDA-depleted HeLa cells
  effect on cell morphology (images): no effect

## Nc1ccn([C@@H]2O[C@H](CO)[C@@H](O)C2(F)F)c(=O)n1 [gemcitabine]
HCC-1954 cells
  gemcitabine resistance (cell survival, MTT): significant increase in gemcitabine resistance
IGROV-1 cells
  gemcitabine resistance (cell survival, MTT): significant increase in gemcitabine resistance
